Results on eight compounds are retold here after patent US10004701B2, “Methods and compositions for treating infection” (UNIVERSITY OF ROCHESTER, priority 2012, dated 2018).

Holding throughout (experiment): AK assay 384-well format, Prestwick library screening
For one assay, the system named is K. pneumoniae. The assay is classed as cell-based, Klebsiella pneumoniae. Particulars: 50 μM final drug concentration; for fold induction at 50 µM: Klebsiella pneumoniae, 3 h.
For a further assay, the system named is E. coli. The assay is classed as cell-based, Escherichia coli. Particulars: 50 μM final drug concentration; for fold induction at 50 µM: Escherichia coli, 3 h.
The subject of another assay is E. faecium. The assay is classed as cell-based, Enterococcus faecium. Particulars: 50 μM final drug concentration; for fold induction at 50 µM: Enterococcus faecium, 3 h.
Another assay relates to P. aeruginosa. It counts as cell-based, Pseudomonas aeruginosa. The following applies: 50 μM final drug concentration; for fold induction at 50 µM: Pseudomonas aeruginosa, 3 h.
In assay [1] the test system is A. baumannii strain 98-37-09. It counts as cell-based, Acinetobacter baumannii. The following applies: 50 μM final drug concentration; for fold induction at 50 µM: Acinetobacter baumannii, 983709, 3 h.
Another assay relates to E. cloacae. It counts as cell-based, Enterobacter cloacae. Particulars: 50 μM final drug concentration; for fold induction at 50 µM: Enterobacter cloacae, 3 h.
The test system of assay [2] is S. aureus strain USA300-0114. The assay is classed as cell-based, Staphylococcus aureus. Particulars: 50 μM final drug concentration; for fold induction at 50 µM: Staphylococcus aureus, USA300, 3 h.
Where [3] appears, read: planktonic, cutoff for positive 3-fold increase.

Counter-ions that a name gives are not always drawn. Like-named read-outs stand apart in the source and are kept apart here.

For the compound `COc1cc2c(c(OC)c1OC)-c1ccc(O)c(=O)cc1C(N)CC2` (centres unmarked) [Trimethylcolchicinic acid], the fold induction at 50 µM stood at 0.7 in the assay with K. pneumoniae (planktonic K. pneumoniae, […], read-out: AK-based Prestwick Library Screening Results, K. pneumoniae (increase in extracellular AK activity)); 0.8 with E. coli (planktonic E. coli, […], read-out: AK-based Prestwick Library Screening Results, E. coli (increase in extracellular AK activity)); 1.2 in the assay on E. faecium (planktonic E. faecium, […], read-out: AK-based Prestwick Library Screening Results, E. faecium (increase in extracellular AK activity)); 0.7 in the assay on P. aeruginosa (planktonic P. aeruginosa, […], read-out: AK-based Prestwick Library Screening Results, P. aeruginosa (increase in extracellular AK activity)); 1 in assay [1] (planktonic A. baumannii, […], read-out: AK-based Prestwick Library Screening Results, A. baumannii (increase in extracellular AK activity)); 0.8 with E. cloacae (planktonic E. cloacae, […], read-out: AK-based Prestwick Library Screening Results, E. cloacae (increase in extracellular AK activity)). In assay [2] (planktonic S. aureus, […], read-out: AK-based Prestwick Library Screening Results, S. aureus (increase in extracellular AK activity)), the fold induction at 50 µM worked out at 0.6.

For the compound `COc1ccccc1N1CCN(CCCCNC(=O)c2ccc3ccccc3c2)CC1` [DO 897/99], in the assay with K. pneumoniae (planktonic, […]), the “AK-based Prestwick Library Screening Results, K. pneumoniae (fold increase in extracellular AK activity)” value came to 1.3. Besides, in the assay with E. coli (planktonic, […]), the “AK-based Prestwick Library Screening Results, E. coli (fold increase in extracellular AK activity)” value came to 1.4. Further, the “AK-based Prestwick Library Screening Results, E. faecium (fold increase in extracellular AK activity)” value with E. faecium (planktonic, […]) stood at 1.0. Moreover, the “AK-based Prestwick Library Screening Results, P. aeruginosa (fold increase in extracellular AK activity)” value in the assay on P. aeruginosa (planktonic, […]) is reported as 1.3. Also, the “AK-based Prestwick Library Screening Results, A. baumannii (fold increase in extracellular AK activity)” value in assay [1] (planktonic, […]) came out at 1.2. For the same compound, the “AK-based Prestwick Library Screening Results, E. cloacae (fold increase in extracellular AK activity)” value in the assay with E. cloacae (planktonic, […]) turned out to be 1.7. Moreover, in assay [2] (planktonic, […]), the “AK-based Prestwick Library Screening Results, S. aureus (fold increase in extracellular AK activity)” value stood at 1.1.

For `OC(c1cc(C(F)(F)F)nc2c(C(F)(F)F)cccc12)C1CCCCN1` (centres unmarked) [Mefloquine hydrochloride], the fold induction at 50 µM in the assay on K. pneumoniae (384-well format, cutoff for positive-scoring molecules 3-fold increase, read-out: AK-based Prestwick Library Screening Results, K. pneumoniae (increase in extracellular AK activity)) worked out at 1.3; in the assay with E. coli (384-well format, cutoff for positive-scoring molecules 3-fold increase, read-out: AK-based Prestwick Library Screening Results, E. coli (increase in extracellular AK activity)), 1.3; with E. faecium (384-well format, cutoff for positive-scoring molecules 3-fold increase, read-out: AK-based Prestwick Library Screening Results, E. faecium (increase in extracellular AK activity)), 1; with P. aeruginosa (384-well format, cutoff for positive-scoring molecules 3-fold increase, read-out: AK-based Prestwick Library Screening Results, P. aeruginosa (increase in extracellular AK activity)), 1.1; in assay [1] (384-well format, cutoff for positive-scoring molecules 3-fold increase, read-out: AK-based Prestwick Library Screening Results, A. baumannii (increase in extracellular AK activity)), 2.6; in the assay with E. cloacae (384-well format, cutoff for positive-scoring molecules 3-fold increase, read-out: AK-based Prestwick Library Screening Results, E. cloacae (increase in extracellular AK activity)), 1.2. Also, in assay [2] (384-well format, cutoff for positive-scoring molecules 3-fold increase, read-out: AK-based Prestwick Library Screening Results, S. aureus (increase in extracellular AK activity)), the fold induction at 50 µM worked out at 3.2.

Turning to `CN1[C@@H]2CCC[C@H]1CC(=O)C2.Cl` [Pseudopelletierine hydrochloride], the “AK-based Prestwick Library Screening Results, K. pneumoniae (fold increase in extracellular AK activity)” value in the assay with K. pneumoniae (setting [3]) is given as 1.2. In the assay with E. coli (planktonic, […]), the “AK-based Prestwick Library Screening Results, E. coli (fold increase in extracellular AK activity)” value is 1.4. The “AK-based Prestwick Library Screening Results, E. faecium (fold increase in extracellular AK activity)” value with E. faecium (setting [3]) was determined as 0.9. Moreover, the “AK-based Prestwick Library Screening Results, P. aeruginosa (fold increase in extracellular AK activity)” value in the assay on P. aeruginosa (setting [3]) was 1.1. For the same compound, in assay [1] (setting [3]), the “AK-based Prestwick Library Screening Results, A. baumannii (fold increase in extracellular AK activity)” value is 1.2. Besides, the “AK-based Prestwick Library Screening Results, E. cloacae (fold increase in extracellular AK activity)” value in the assay with E. cloacae (setting [3]) came out at 1.5. For the same compound, in assay [2] (setting [3]), the “AK-based Prestwick Library Screening Results, S. aureus (fold increase in extracellular AK activity)” value is 1.0.

For the compound `COC(=O)[C@H]1[C@H]2C[C@@H]3c4[nH]c5cc(OC)ccc5c4CCN3C[C@H]2C[C@@H](OC(=O)/C=C/c2cc(OC)c(OC)c(OC)c2)[C@@H]1OC` [Rescinnamin], the “AK-based Prestwick Library Screening Results, K. pneumoniae (increase in extracellular AK activity)” value in the assay with K. pneumoniae (planktonic K. pneumoniae, cutoff for positive-scoring molecules 3-fold increase) is recorded as 0.6. For the same compound, the “AK-based Prestwick Library Screening Results, E. coli (increase in extracellular AK activity)” value in the assay on E. coli (planktonic E. coli, cutoff for positive-scoring molecules 3-fold increase) is listed as 0.7. Moreover, the “AK-based Prestwick Library Screening Results, E. faecium (increase in extracellular AK activity)” value in the assay with E. faecium (planktonic E. faecium, cutoff for positive-scoring molecules 3-fold increase) is 1.0. In the assay on P. aeruginosa (planktonic P. aeruginosa, cutoff for positive-scoring molecules 3-fold increase), the “AK-based Prestwick Library Screening Results, P. aeruginosa (increase in extracellular AK activity)” value was 0.4. Further, the “AK-based Prestwick Library Screening Results, A. baumannii (increase in extracellular AK activity)” value in assay [1] (planktonic A. baumannii, cutoff for positive-scoring molecules 3-fold increase) is 1.1. For the same compound, the “AK-based Prestwick Library Screening Results, E. cloacae (increase in extracellular AK activity)” value with E. cloacae (planktonic E. cloacae, cutoff for positive-scoring molecules 3-fold increase) stood at 0.6. For the same compound, the “AK-based Prestwick Library Screening Results, S. aureus (increase in extracellular AK activity)” value in assay [2] (planktonic S. aureus, cutoff for positive-scoring molecules 3-fold increase) is recorded as 0.3.

Turning to `NCC(CC(=O)O)c1ccc(Cl)cc1` (racemic) [Baclofen (R,S)], in the assay on K. pneumoniae (384-well format, […]), the “AK-based Prestwick Library Screening Results, K. pneumoniae (increase in extracellular AK activity)” value is 0.6. In addition, in the assay with E. coli (384-well format, […]), the “AK-based Prestwick Library Screening Results, E. coli (increase in extracellular AK activity)” value was found to be 0.5. Besides, the “AK-based Prestwick Library Screening Results, E. faecium (increase in extracellular AK activity)” value with E. faecium (384-well format, […]) was determined as 0.8. For the same compound, in the assay with P. aeruginosa (384-well format, […]), the “AK-based Prestwick Library Screening Results, P. aeruginosa (increase in extracellular AK activity)” value was found to be 0.3. Also, in assay [1] (384-well format, […]), the “AK-based Prestwick Library Screening Results, A. baumannii (increase in extracellular AK activity)” value came out at 0.4. In addition, the “AK-based Prestwick Library Screening Results, E. cloacae (increase in extracellular AK activity)” value in the assay with E. cloacae (384-well format, […]) is given as 0.3. Also, the “AK-based Prestwick Library Screening Results, S. aureus (increase in extracellular AK activity)” value in assay [2] (384-well format, […]) was found to be 0.4.

For the compound `CC[C@@H](CO)NC(=O)[C@@H]1C=C2c3cccc4[nH]cc(c34)C[C@H]2N(C)C1` [Methylergometrine maleate], the fold induction at 50 µM with K. pneumoniae (planktonic, […], read-out: AK-based Prestwick Library Screening Results, K. pneumoniae (fold increase in extracellular AK activity)) turned out to be 1; in the assay on E. coli (planktonic, […], read-out: AK-based Prestwick Library Screening Results, E. coli (fold increase in extracellular AK activity)), 1; with E. faecium (planktonic, […], read-out: AK-based Prestwick Library Screening Results, E. faecium (fold increase in extracellular AK activity)) it was 0.9; in the assay on P. aeruginosa (planktonic, […], read-out: AK-based Prestwick Library Screening Results, P. aeruginosa (fold increase in extracellular AK activity)) it was 0.9; in assay [1] (planktonic, […], read-out: AK-based Prestwick Library Screening Results, A. baumannii (fold increase in extracellular AK activity)), 0.9; with E. cloacae (planktonic, […], read-out: AK-based Prestwick Library Screening Results, E. cloacae (fold increase in extracellular AK activity)), 1.6. Further, the fold induction at 50 µM in assay [2] (planktonic, […], read-out: AK-based Prestwick Library Screening Results, S. aureus (fold increase in extracellular AK activity)) amounted to 0.8.

For `OCCN1CCN(CCCN2c3ccccc3Sc3ccc(C(F)(F)F)cc32)CC1` [Fluphenazine dihydrochloride], the fold induction at 50 µM in the assay with K. pneumoniae (planktonic K. pneumoniae, 384-well, cutoff for positive-scoring molecules 3-fold increase, read-out: AK-based Prestwick Library Screening Results: K. pneumoniae (increase in extracellular AK activity)) was determined as 1.5; with E. coli (planktonic E. coli, 384-well, cutoff for positive-scoring molecules 3-fold increase, read-out: AK-based Prestwick Library Screening Results: E. coli (increase in extracellular AK activity)) it was 1.3; with E. faecium (planktonic E. faecium, 384-well, cutoff for positive-scoring molecules 3-fold increase, read-out: AK-based Prestwick Library Screening Results: E. faecium (increase in extracellular AK activity)), 1.1; in the assay on P. aeruginosa (planktonic P. aeruginosa, 384-well, cutoff for positive-scoring molecules 3-fold increase, read-out: AK-based Prestwick Library Screening Results: P. aeruginosa (increase in extracellular AK activity)), 1.1; in assay [1] (planktonic A. baumannii, 384-well, cutoff for positive-scoring molecules 3-fold increase, read-out: AK-based Prestwick Library Screening Results: A. baumannii (increase in extracellular AK activity)), 1.6; with E. cloacae (planktonic E. cloacae, 384-well, cutoff for positive-scoring molecules 3-fold increase, read-out: AK-based Prestwick Library Screening Results: E. cloacae (increase in extracellular AK activity)), 1.6. Also, the fold induction at 50 µM in assay [2] (planktonic S. aureus, 384-well, cutoff for positive-scoring molecules 3-fold increase, read-out: AK-based Prestwick Library Screening Results: S. aureus (increase in extracellular AK activity)) worked out at 1.
